Laboratory results reported in patent publication EP4458977A1, “SELF-ASSEMBLING PEPTIDE AMPHIPHILES AS RETROVIRAL TRANSDUCTION ENHANCERS” (Max-Planck-Gesellschaft zur Förderung der Wissenschaften …, priority 2023, dated 2024).
Entries after “also recorded” stand apart in the source; their conditions may differ. Where a SMILES comes first, the peptide text is derived from it. The star is where a group is joined. Palmitoyl = CCCCCCCCCCCCCCCC(=O)*

Tests used:
[1] = TEM of peptide assemblies (fibril formation / assembly); type: physicochemical; conditions: for TEM morphology (in words): 1 mg/mL in PBS; for Assembly without hydrophob residue: corresponding peptide without hydrophobic moiety; for Assembly: peptide amphiphile
Description: The peptides were predissolved in DMSO to a concentration of 10 mg/mL. The fibril formation was induced by further diluting the solution to a final incubation concentration of 650 µM or 1 mg/mL in PBS as indicated in the text and incubated for 1 d (1 day) at rt (room temperature, 20 °C - 25 °C). Other concentrations as described herein were achieved by further dilution of preformed fibrils.
(§1) Transmission electron microscopy (TEM) measurements, Thioflavin (ThT), zeta-potential measurements for fibril characterization were prepared and conducted according to prior art procedures. […] Fibrils were defined as distinct, if no visible structures could be identified in fluorescence and brightfield microscopy.

[2] = ATR-FT-IR determination of β-sheet content; type: physicochemical; conditions: 1 mg/mL in PBS lyophilized; integral at 1630 cm^-1 relative to 1650-1700 cm^-1
Description: ATR-FT-IR: ATR-IR spectra acquisition and the calculation of β-sheet content were conducted according prior art procedures. Briefly, FT-IR spectra of solid samples were recorded after lyophilization of fibril solutions using a Bruker Tensor II spectrometer equipped with a diamond crystal as ATR element with a spectral resolution of 2 cm^-1, each spectrum was an average of 64 scans. The data was processed with Origin software. β-sheet amount was determined by calculating the integral of the peak at 1630 cm-1 (β-sheet) relative to the integral between 1650-1700 cm-1 (native structure) from the 2nd derivative of the FT-IR spectra.

HIV-1 = conditions: for enhancement of HIV-1 infection / transduction (in words): 6.5 µM, 1.3 µM, 0.26 µM; for Infectivity enhancing N fold at 1.3 µM: relative to virus only
Description: HIV-1 Infection Assay with TZM-bl cells: The effect of peptide fibrils on HIV-1 infection was studied via a luminescence assay for β-galactosidase, which was reported by TZM-bl cells upon infection. The HIV-1 infection assay was conducted in three technical replicates and repeated in three independent experiments unless stated otherwise.

[3] = Fluorescence microscopy of ThT-stained fibrils (µm-sized aggregates); type: physicochemical; conditions: 1 mg/mL stained with 50 µM ThT
Description: as §1
Fluorescence microscopy: 1 µL Fibrils (1 mg mL^-1) were stained with 9 µL, 50 µM ThT. 10 µL of the stained fibrils (0.1 mg mL^-1) were placed on a microscopy glass. Fluorescence microscopy measurements were performed on a Leica DMi8 microscope with 10x air objective and equipped with a Leica MC170 HD camera with a filter setting λem = 527/30 nm upon excitation at λex = 480/40 nm) and processed with the Leica LASX software.

HeLa cells = assay: Confocal laser scanning microscopy and degradation study with PA library and HeLa cells; type: cell-based; conditions: for degradability (in words) / Degradability / % (rel. to initial particles > 10 µm^2): HeLa cells; for degradability (in words): 3 days; for Degradability / % (rel. to initial particles > 10 µm^2): 3 d relative to 30 min; for association with cellular membranes: 2 µg added to 20.000 HeLa cells, 30 min
Description: In general, the procedure for determine whether a PA is degraded or not, is conducted by confocal laser scanning microscopy of Proteostat stained PAs which are added to Hela cells (2 µg peptide added to 20.000 cells). Microscopy is conducted at day 0 (d0, after 30 min of incubation) and at day 3 (d3, after 72 h of incubation). The number of aggregates >10 µm^2 is counted via 3D object counter in imaged in an area of 1008 µm × 1008 µm.
A PA is considered to be degradable if the number and the size of aggregates are reduced after 3 days. The efficiency is determined by the percentual degradation (aggregate number at d3 / aggregate number at d0). For the number of aggregation three technical replicates were evaluated for each sample. A large deviation represents a nonhomogeneous spatial distribution of aggregates.
Confocal laser scanning microscopy and degradation study with PA library and HeLa cells: Confocal laser scanning microscopy studies were performed for the visualization of the cell-PA interaction. HeLa cells were seeded one day prior to conducting the assay (20,000/well) in an 8-well IBIDI slide. […] The nucleus of the HeLa cells was stained with Hoechst 33342 (NucBlue™, Thermo Fisher Scientific). The peptide solution mixture was transferred to the HeLa cells and incubated for 30 min at 37°C before washing three times with PBS. […] For the evaluation of aggregate degradation, the samples were further incubated at 37°C for 3 d and analyzed without any additional washing step. […] The number of aggregates were determined by counting aggregates larger than the threshold 10 µm^2 in an area of 1008 × 1008 µm and repeated in three technical triplicates.
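For Infectivity enhancing N fold at 1.3 µM in this document: TZM-bl reporter cells exposed to HIV-1 with peptide fibrils, infection read out as β-galactosidase luminescence, compared with virus alone.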
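For enhancement of HIV-1 infection / transduction (in words) in this document: TZM-bl reporter cells exposed to HIV-1 with peptide fibrils, infection read out as β-galactosidase luminescence, compared with virus alone.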
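For enhances infectivity at 1.3 µM concentration, times more efficient compared to virus only infection in this document: TZM-bl reporter cells exposed to HIV-1 with peptide fibrils, infection read out as β-galactosidase luminescence, compared with virus alone.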
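For infectivity enhancement at 1.3 µM concentration compared to virus only infection (in words) in this document: TZM-bl reporter cells exposed to HIV-1 with peptide fibrils, infection read out as β-galactosidase luminescence, compared with virus alone.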

## CCCCCCCCCCCCCCCC(=O)N[C@@H](C)C(=O)N[C@@H](CCC(N)=O)C(=O)N[C@@H](C)C(=O)N[C@@H](CCCCN)C(=O)N[C@@H](C)C(=O)N[C@@H](CCCCN)C(N)=O [Pat16, C16-AQAKAK-NH2] (Palmitoyl-AQAKAK-NH2)
[1]
  TEM morphology (in words): fibrillar morphologies
  Assembly without hydrophob residue: No
  Assembly: Yes
[2]
  β-sheet amount: 50%
HIV-1
  enhances infectivity at 1.3 µM concentration, times more efficient compared to virus only infection: 4 times
  enhancement of HIV-1 infection / transduction (in words): do not efficiently enhance infectivity
  Infectivity enhancing N fold at 1.3 µM: 4±1 N fold
[3]
  fluorescent, µm-sized aggregates (ThT staining): fluorescent, µm-sized aggregates
HeLa cells
  degradability (in words): cannot be degraded; also recorded: non-degradable PA
  Degradability / % (rel. to initial particles > 10 µm^2): -83%
HeLa cells; d3 relative to d0
  aggregate number increases: 83%

## CCCCCCCCCCCCCCCC(=O)N[C@H](C(=O)N[C@H](C(=O)N[C@@H](C)C(=O)N[C@@H](C)C(=O)N[C@@H](Cc1c[nH]cn1)C(=O)N[C@@H](Cc1c[nH]cn1)C(=O)N[C@@H](Cc1c[nH]cn1)C(N)=O)C(C)C)C(C)C [Pat24, C16-VVAAHHH-NH2] (Palmitoyl-VVAAHHH-NH2)
[1]
  TEM morphology (in words): fibrillar morphologies
  Assembly without hydrophob residue: No
  Assembly: Yes
[2]
  β-sheet amount: 70%
HIV-1
  infectivity enhancement at 1.3 µM concentration compared to virus only infection (in words): does not enhance infectivity
  enhancement of HIV-1 infection / transduction (in words): do not efficiently enhance infectivity
  Infectivity enhancing N fold at 1.3 µM: 2±0 N fold
[3]
  fluorescent, µm-sized aggregates (ThT staining): fluorescent, µm-sized aggregates
HeLa cells
  association with cellular membranes: association with cellular membranes
  degradability (in words): cannot efficiently be degraded; also recorded: not efficiently degradable; also recorded: non-degradable PA
  Degradability / % (rel. to initial particles > 10 µm^2): 26%
HeLa cells; d3 relative to d0
  aggregate number decreases / degraded in presence of HeLa cells within 3 days: 26%

## CCCCCCCCCCCCCCCC(=O)N[C@@H](CCCCN)C(=O)N[C@@H](Cc1ccc(O)cc1)C(=O)N[C@H](C(=O)N[C@@H](Cc1c[nH]cn1)C(=O)N[C@@H](CCC(N)=O)C(=O)N[C@@H](CC(N)=O)C(=O)N[C@@H](Cc1ccc(O)cc1)C(=O)N[C@H](C(=O)N[C@@H](CCCCN)C(=O)N[C@@H](C)C(=O)N[C@@H](CC(C)C)C(=O)N[C@@H](C)C(=O)NCC(=O)N[C@@H](CCCCN)C(=O)N[C@@H](CC(C)C)C(=O)N[C@H](C(N)=O)C(C)C)[C@@H](C)O)[C@@H](C)CC [Pat26] (Palmitoyl-KYIHQNYTKALAGKLV-NH2)
[1]
  TEM morphology (in words): fibrillar morphologies
  Assembly without hydrophob residue: No
  Assembly: Yes
[2]
  β-sheet amount: 51%
HIV-1
  enhances infectivity at 1.3 µM concentration, times more efficient compared to virus only infection: 5 times
  infectivity enhancement at 1.3 µM concentration compared to virus only infection (in words): does not enhance infectivity
  Infectivity enhancing N fold at 1.3 µM: 5±2 N fold
[3]
  fluorescent, µm-sized aggregates (ThT staining): fluorescent, µm-sized aggregates
HeLa cells
  association with cellular membranes: association with cellular membranes
  degradability (in words): cannot be degraded; also recorded: not efficiently degradable; also recorded: non-degradable PA
  Degradability / % (rel. to initial particles > 10 µm^2): -110%
HeLa cells; d3 relative to d0
  aggregate number increases: 110%

## CCCCCCCCCCCCCCCC(=O)N[C@@H](CC(N)=O)C(=O)N[C@@H](Cc1ccccc1)C(=O)N[C@@H](Cc1ccc(O)cc1)C(=O)N[C@@H](CC(C)C)C(=O)N[C@@H](CCC(N)=O)C(=O)N[C@H](C(=O)N[C@@H](CC(N)=O)C(=O)N[C@@H](CCCCN)C(=O)N[C@H](C(=O)N[C@@H](CC(N)=O)C(=O)N[C@@H](CCCCN)C(N)=O)[C@@H](C)CC)C(C)C [Pat27] (Palmitoyl-NFYLQVNKINK-NH2)
[1]
  TEM morphology (in words): fibrillar morphologies
  Assembly without hydrophob residue: Yes
  Assembly: Yes
[2]
  β-sheet amount: 60%
HIV-1
  enhances infectivity at 1.3 µM concentration, times more efficient compared to virus only infection: 5 times
  Infectivity enhancing N fold at 1.3 µM: 5±1 N fold
[3]
  fluorescent, µm-sized aggregates (ThT staining): fluorescent, µm-sized aggregates
HeLa cells
  association with cellular membranes: association with cellular membranes
  degradability (in words): cannot be degraded; also recorded: not efficiently degradable; also recorded: non-degradable PA
  Degradability / % (rel. to initial particles > 10 µm^2): -123%
HeLa cells; d3 relative to d0
  aggregate number increases: 123%

## CCCCCCCCCCCCCCCC(=O)NCC(=O)N[C@@H](CCCCN)C(=O)N[C@H](C(=O)NCC(=O)N[C@@H](CO)C(=O)N[C@@H](CCCCN)C(N)=O)C(C)C [Pat30, C16-GKVGSK-NH2] (Palmitoyl-GKVGSK-NH2)
[1]
  TEM morphology (in words): fibrillar morphologies
  Assembly without hydrophob residue: No
  Assembly: Yes
[2]
  β-sheet amount: 41%
HIV-1
  infectivity enhancement at 1.3 µM concentration compared to virus only infection (in words): does not enhance infectivity
  enhancement of HIV-1 infection / transduction (in words): do not efficiently enhance infectivity
  Infectivity enhancing N fold at 1.3 µM: 2±1 N fold
[3]
  fluorescent, µm-sized aggregates (ThT staining): less fluorescent, µm-sized aggregates
HeLa cells
  association with cellular membranes: no association with cellular membranes

## CCCCCCCCCCCCCCCC(=O)N[C@@H](CCCCN)C(=O)NCC(=O)N[C@H](C(=O)N1CCC[C@H]1C(=O)NCC(=O)N[C@H](C(=O)NCC(=O)N[C@@H](CCCCN)C(N)=O)C(C)C)C(C)C [Pat25] (Palmitoyl-KGVPGVGK-NH2)
[1]
  TEM morphology (in words): not forming fibrils; also recorded: no fibrillar morphologies
  Assembly without hydrophob residue: Yes
  Assembly: No
[2]
  β-sheet amount: 0%
HIV-1
  infectivity enhancement at 1.3 µM concentration compared to virus only infection (in words): do not enhance infectivity
  enhancement of HIV-1 infection / transduction (in words): no infectivity enhancement can be observed
  Infectivity enhancing N fold at 1.3 µM: 1±0 N fold
[3]
  fluorescent, µm-sized aggregates (ThT staining): fluorescent, µm-sized aggregates
HeLa cells
  association with cellular membranes: no association with cellular membranes

## CCCCCCCCCCCCCCCC(=O)NCC(=O)NCC(=O)NCC(=O)N[C@@H](CO)C(=O)N[C@@H](CO)C(=O)N[C@@H](CCCCN)C(=O)N[C@@H](CCCCN)C(=O)N[C@@H](CCCCN)C(N)=O [Pat28] (Palmitoyl-GGGSSKKK-NH2)
[1]
  TEM morphology (in words): fibrillar morphologies
  Assembly without hydrophob residue: No
  Assembly: Yes
[2]
  β-sheet amount: 26%
HIV-1
  Infectivity enhancing N fold at 1.3 µM: 2±1 N fold
[3]
  fluorescent, µm-sized aggregates (ThT staining): no fluorescent, µm-sized aggregates
HeLa cells
  association with cellular membranes: no association with cellular membranes
